These results are taken from PubChem BioAssay AID200 (DTP/NCI, 2004).

The test system of this assay is B6C3F1 mice, B16 melanoma ip, median survival T/C. In words: NCI In Vivo Anticancer Drug Screen. Data for tumor model B16 Melanoma (intraperitoneal) in B6C3F1 mice. As to conditions: endpoint: median survival time, higher = longer survival. Put shortly: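 Readout: survival or tumor size in treated mice relative to vehicle controls (T/C). Model uses transplantable tumors grown in mice.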

The mark [1] stands for this setting: dose: 12.5 mg/kg/injection, schedule: Q01DX009 (ip), vehicle: saline with Tween-80.
Where [2] appears, read: dose: 25.0 mg/kg/injection, schedule: Q01DX009 (ip), vehicle: saline with Tween-80.
Setting [3] is: dose: 50.0 mg/kg/injection, schedule: Q01DX009 (ip), vehicle: saline with Tween-80.
Setting [4] is: dose: 100.0 mg/kg/injection, schedule: Q01DX009 (ip), vehicle: saline with Tween-80.
[5] abbreviates: dose: 200.0 mg/kg/injection, schedule: Q01DX009 (ip), vehicle: saline with Tween-80.
[6] abbreviates: dose: 100.0 mg/kg/injection, schedule: Q01DX009 (ip), vehicle: Klucel (hydroxypropylcellulose) (HPC).
Where [7] appears, read: dose: 200.0 mg/kg/injection, schedule: Q01DX009 (ip), vehicle: Klucel (hydroxypropylcellulose) (HPC).
[8] abbreviates: dose: 100.0 mg/kg/injection, schedule: Q01DX009 (ip), vehicle: saline.

“And” between values parts separate entries of the source, which are not always exact repeats. Equal values may be shown once. Toxic doses and inconclusive results are not listed. Where a SMILES comes first, the peptide text is derived from it. [ ]: non-standard residue; d: D form. The star is where a group is joined. Cbz = O=C(OCc1ccccc1)*; Nva = CCC[CH](N)C(=O)O; Bn = c1ccc(C*)cc1

With `COc1cccc(C2NC(=O)c3c(n[nH]c3N)S2)c1O` (stereo not given), the T/C is, setting by setting: under setting [1], 101 % of control; under setting [2], 106 % of control; under setting [3], 104 % of control; under setting [4], 107 % of control; under setting [5], 95 % of control.

With `C=C(C)C(=O)OC1CC(C)(O)C2(O)CCC(C)(/C=C3\OC(=O)C(COC(C)=O)=C31)O2` (stereo not given), the T/C (dose: 0.62 mg/kg/injection, schedule: Q01DX009 (ip), vehicle: distilled water + Tween-80 + alcohol) was 96 % of control; the T/C (dose: 1.25 mg/kg/injection, schedule: Q01DX009 (ip), vehicle: distilled water + Tween-80 + alcohol) is 105 % of control; the T/C (dose: 2.5 mg/kg/injection, schedule: Q01DX009 (ip), vehicle: distilled water + Tween-80 + alcohol) is 92 % of control; the T/C (dose: 5.0 mg/kg/injection, schedule: Q01DX009 (ip), vehicle: distilled water + Tween-80 + alcohol) was 89 % of control.

With `CC1(C)CC23C4COC(=O)C2CCC1C3CC4=O` (stereo not given), the T/C reads like this: (dose: 6.25 mg/kg/injection, schedule: Q01DX009 (ip), vehicle: DMSO) 89 % of control; (dose: 12.5 mg/kg/injection, schedule: Q01DX009 (ip), vehicle: DMSO) 90 % of control; (dose: 25.0 mg/kg/injection, schedule: Q01DX009 (ip), vehicle: DMSO) 97 % of control; (dose: 50.0 mg/kg/injection, schedule: Q01DX009 (ip), vehicle: DMSO) 99 % of control; (dose: 100.0 mg/kg/injection, schedule: Q01DX009 (ip), vehicle: DMSO) 88 % of control; (dose: 200.0 mg/kg/injection, schedule: Q01DX009 (ip), vehicle: DMSO) 96 % of control.

On to `CCCCCCCCCCCCCCC/C([O-])=N/[N+](C)(C)CC(C)O` (stereo not given), for which the T/C runs as follows: (dose: 25.0 mg/kg/injection, schedule: Q01DX001 (ip), vehicle: saline with Tween-80) 105 % of control; (dose: 50.0 mg/kg/injection, schedule: Q01DX001 (ip), vehicle: saline with Tween-80) 96 % of control; (dose: 50.0 mg/kg/injection, schedule: Q01DX001 (ip), vehicle: saline) 105 % of control; (dose: 100.0 mg/kg/injection, schedule: Q01DX001 (ip), vehicle: saline with Tween-80) 97 % of control; (dose: 200.0 mg/kg/injection, schedule: Q01DX001 (ip), vehicle: saline with Tween-80) 104 % of control; (dose: 200.0 mg/kg/injection, schedule: Q01DX001 (ip), vehicle: saline) 86 % of control. Also, for the setting “dose: 400.0 mg/kg/injection, schedule: Q01DX001 (ip), vehicle: saline with Tween-80”, the T/C was 100 % of control.

As for `CCCC(NC(=O)OCc1ccccc1)C(=O)NC(Cc1ccccc1)C(=O)O` (stereo not given) (Cbz-[Nva]-Phe-OH; configuration not given here), the T/C was 101 % of control under setting [6]; 104 % of control under setting [7]; 89 % of control (dose: 400.0 mg/kg/injection, schedule: Q01DX009 (ip), vehicle: Klucel (hydroxypropylcellulose) (HPC)).

`CN=C(N)c1ccc(N=C(N)c2ccc(C(N)=Nc3ccc(C(N)=NC)cc3)cc2)cc1`: the T/C runs as follows: (dose: 7.5 mg/kg/injection, schedule: Q01DX009 (ip), vehicle: saline) 95 % of control; (dose: 15.0 mg/kg/injection, schedule: Q01DX009 (ip), vehicle: saline) 89 % of control.

Regarding `O=C(CCl)Oc1ccc(-c2ccccc2)cc1Br`, the T/C was 98 % of control under setting [3], 90 % of control under setting [4] and 87 % of control under setting [5].

As to `CC(C)C(NC(=O)C(CSCc1ccccc1)NC(=O)OCc1ccccc1)C(=O)O` (stereo not given) (Cbz-Cys(Bn)-Val-OH; configuration not given here), the T/C was 93 % of control under setting [6] and 98 % of control under setting [7].

In the case of `C/C(=N\NC(=O)c1ccncc1)c1ccc(Cl)cc1`, the T/C reads like this: (dose: 1.25 mg/kg/injection, schedule: Q01DX009 (ip), vehicle: saline) 96 % of control; (dose: 2.5 mg/kg/injection, schedule: Q01DX009 (ip), vehicle: saline) 98 % of control; (dose: 5.0 mg/kg/injection, schedule: Q01DX009 (ip), vehicle: saline) 107 % of control.

As to `COC1=C2C[C@@H](C)C[C@@H](OC)[C@@H](O)[C@H](C)/C=C(\C)[C@@H](OC(N)=O)[C@H](OC)/C=C\C=C(/C)C(=O)NC(=CC1=O)C2=O`, the T/C reads like this: (dose: 0.12 mg/kg/injection, schedule: Q01DX009 (ip), vehicle: saline with Tween-80) 103 % of control and 106 % of control; (dose: 0.13 mg/kg/injection, schedule: Q01DX009 (ip), vehicle: saline with Tween-80) 105 % of control; (dose: 0.25 mg/kg/injection, schedule: Q01DX009 (ip), vehicle: saline with Tween-80) 108 % of control and 118 % of control; (dose: 0.5 mg/kg/injection, schedule: Q01DX009 (ip), vehicle: saline with Tween-80) 122 % of control and 102 % of control and 105 % of control; (dose: 1.0 mg/kg/injection, schedule: Q01DX009 (ip), vehicle: saline with Tween-80) 109 % of control and 102 % of control; (dose: 2.0 mg/kg/injection, schedule: Q01DX009 (ip), vehicle: saline with Tween-80) 123 % of control and 106 % of control.

For the compound `NC(=O)/C=C/C(N)=O`, the T/C was 113 % of control under setting [1], 109 % of control under setting [2] and 89 % of control under setting [3].

Turning to `CCC(/C=C/C1OC(=O)C=CC1C)=C\C(C)C/C=C/C(C)=C/C(C)C(=O)C(C)C(O)C(C)C/C(C)=C/C(=O)O` (stereo not given), the T/C was 105 % of control (dose: 6.25 micrograms/kg/injection, schedule: Q01DX009 (sc), vehicle: other); 159 % of control (dose: 12.5 micrograms/kg/injection, schedule: Q01DX009 (ip), vehicle: other); 156 % of control and 198 % of control (dose: 12.5 micrograms/kg/injection, schedule: Q01DX009 (ip), vehicle: saline + alcohol); 102 % of control (dose: 12.5 micrograms/kg/injection, schedule: Q01DX009 (sc), vehicle: other); 165 % of control (dose: 25.0 micrograms/kg/injection, schedule: Q01DX009 (ip), vehicle: saline + alcohol); 115 % of control (dose: 25.0 micrograms/kg/injection, schedule: Q01DX009 (sc), vehicle: other).

`CC(C)OC(CCCl)c1ccccc1` (stereo not given): the T/C under setting [4] was 94 % of control; the T/C under setting [5] is 87 % of control; the T/C (dose: 400.0 mg/kg/injection, schedule: Q01DX009 (ip), vehicle: saline with Tween-80) was 100 % of control.

Regarding `CCOC(=O)C1=C(C)NC(C)=C(C(=O)OCC)C1C`, the T/C is, setting by setting: under setting [8], 94 % of control; (dose: 200.0 mg/kg/injection, schedule: Q01DX009 (ip), vehicle: saline) 95 % of control; (dose: 400.0 mg/kg/injection, schedule: Q01DX009 (ip), vehicle: saline) 91 % of control.

In the case of `O=C(CN1CCOCC1)Nc1nc(-c2ccc(Cl)cc2)cs1`, the T/C runs as follows: under setting [1], 105 % of control; under setting [2], 94 % of control; under setting [3], 96 % of control; under setting [4], 103 % of control; under setting [5], 98 % of control.

With `NC(N)=N/N=C/c1ccc(Cl)cc1Cl`, the T/C is 100 % of control (dose: 25.0 mg/kg/injection, schedule: Q01DX009 (ip), vehicle: saline); 89 % of control (dose: 50.0 mg/kg/injection, schedule: Q01DX009 (ip), vehicle: saline); 95 % of control under setting [8].

`COc1cc2cc(c1Cl)N(C)C(=O)CC(OC(=O)C(C)N(C)C(=O)C(C)C)C1(C)OC1C(C)C1CC(O)(NC(=O)O1)C(OC)/C=C/C=C(C)C2OC` (stereo not given): the T/C (dose: 2.0 micrograms/kg/injection, schedule: Q01DX009 (ip), vehicle: Klucel (hydroxypropylcellulose) (HPC)) is 196 % of control; the T/C (dose: 4.0 micrograms/kg/injection, schedule: Q01DX009 (ip), vehicle: Klucel (hydroxypropylcellulose) (HPC)) was 157 % of control and 165 % of control and 213 % of control; the T/C (dose: 4.0 micrograms/kg/injection, schedule: Q01DX009 (ip), vehicle: distilled water + alcohol) was 103 % of control; the T/C (dose: 8.0 micrograms/kg/injection, schedule: Q01DX009 (ip), vehicle: Klucel (hydroxypropylcellulose) (HPC)) is 172 % of control and 185 % of control and 245 % of control; the T/C (dose: 8.0 micrograms/kg/injection, schedule: Q01DX009 (ip), vehicle: distilled water + alcohol) was 101 % of control; the T/C (dose: 16.0 micrograms/kg/injection, schedule: Q01DX009 (ip), vehicle: Klucel (hydroxypropylcellulose) (HPC)) is 172 % of control and 194 % of control and 232 % of control. For the same compound, the T/C is, setting by setting: (dose: 16.0 micrograms/kg/injection, schedule: Q01DX009 (ip), vehicle: distilled water + alcohol) 114 % of control; (dose: 32.0 micrograms/kg/injection, schedule: Q01DX009 (ip), vehicle: Klucel (hydroxypropylcellulose) (HPC)) 183 % of control and 207 % of control; (dose: 32.0 micrograms/kg/injection, schedule: Q01DX009 (ip), vehicle: distilled water + alcohol) 119 % of control and 122 % of control; (dose: 64.0 micrograms/kg/injection, schedule: Q01DX009 (ip), vehicle: distilled water + alcohol) 105 % of control; (dose: 128.0 micrograms/kg/injection, schedule: Q01DX009 (ip), vehicle: distilled water + alcohol) 114 % of control.
